Results from ChEMBL document CHEMBL3217743, “Reduction of acyl glucuronidation in a series of acidic 11-hydroxysteroid dehydrogenase type 1 (11-HSD1) inhibitors: the discovery of AZD6925” (Medchemcomm, 2012).

Tests used:
[1] = Half life in dog at 1 to 3 mg/kg, iv; assay type: ADME, organism-based, Canis lupus familiaris; design: dose 1-3 mg/kg, route intravenous; conditions: in vivo
CYP1A2 = target: T1, CYP1A2 (Homo sapiens, UniProt P05177); test: Inhibition of CYP1A2 (unknown origin) at 10 uM relative to control; assay type: ADME
T1 sequence (P05177 whole entry): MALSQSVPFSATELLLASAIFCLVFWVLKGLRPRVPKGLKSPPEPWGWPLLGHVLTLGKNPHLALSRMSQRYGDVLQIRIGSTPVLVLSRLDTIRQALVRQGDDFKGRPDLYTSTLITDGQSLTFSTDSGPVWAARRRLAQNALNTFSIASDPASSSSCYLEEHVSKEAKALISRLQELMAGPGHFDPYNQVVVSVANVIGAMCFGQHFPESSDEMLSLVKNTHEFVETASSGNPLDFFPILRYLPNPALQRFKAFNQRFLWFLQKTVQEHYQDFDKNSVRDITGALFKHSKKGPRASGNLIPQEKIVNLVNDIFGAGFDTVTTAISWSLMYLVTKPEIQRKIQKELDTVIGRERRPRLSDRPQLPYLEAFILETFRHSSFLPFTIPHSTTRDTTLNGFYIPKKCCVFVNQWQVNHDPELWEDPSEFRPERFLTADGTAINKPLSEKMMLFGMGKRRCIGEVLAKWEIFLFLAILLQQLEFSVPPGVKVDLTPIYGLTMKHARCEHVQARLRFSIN

[2] = target: 11-beta-hydroxysteroid dehydrogenase 1 (Rattus norvegicus, UniProt P16232); test: Inhibition of N-terminal 6-His-tagged rat full length 11beta-HSD1 assessed as conversion of cortisone to cortisol after 25 mins by HTRF assay
Sequence of 11-beta-hydroxysteroid dehydrogenase 1 (Rattus norvegicus, UniProt P16232) (P16232 whole entry): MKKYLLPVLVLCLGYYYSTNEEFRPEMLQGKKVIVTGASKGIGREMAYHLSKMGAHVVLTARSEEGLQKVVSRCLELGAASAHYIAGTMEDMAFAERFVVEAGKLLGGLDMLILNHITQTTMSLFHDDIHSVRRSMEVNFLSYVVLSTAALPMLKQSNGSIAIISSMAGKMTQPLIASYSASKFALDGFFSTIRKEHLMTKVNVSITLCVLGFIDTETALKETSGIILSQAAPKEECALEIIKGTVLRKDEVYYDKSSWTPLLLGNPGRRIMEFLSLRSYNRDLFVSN

[3] = Volume of distribution at steady state in dog at 1 to 3 mg/kg; assay type: ADME, organism-based, Canis lupus familiaris; design: dose 1-3 mg/kg; conditions: in vivo, read-out: Vdss
[4] = Drug excretion in bile duct cannulated rat urine assessed as compound remaining by HPLC analysis; assay type: ADME, tissue-based; conditions: read-out: Stability
[5] = target: T2, 11-beta-hydroxysteroid dehydrogenase 1 (Homo sapiens, UniProt P28845); test: Inhibition of 11beta-HSD1 in human adipocytes assessed as conversion of [3H]-cortisone to [3H]-cortisol by scintillation counting analysis; assay type: cell-based
T2 sequence (P28845 whole entry): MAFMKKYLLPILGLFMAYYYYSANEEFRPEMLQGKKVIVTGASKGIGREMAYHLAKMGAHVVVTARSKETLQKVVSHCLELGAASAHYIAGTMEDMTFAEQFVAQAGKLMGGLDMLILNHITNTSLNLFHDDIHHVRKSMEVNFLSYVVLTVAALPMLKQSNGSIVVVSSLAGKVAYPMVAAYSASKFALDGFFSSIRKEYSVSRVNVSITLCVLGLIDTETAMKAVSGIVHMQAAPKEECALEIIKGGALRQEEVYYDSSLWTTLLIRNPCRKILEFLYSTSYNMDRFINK

[6] = target: T3, 17-beta-hydroxysteroid dehydrogenase type 3 (Homo sapiens, UniProt P37058); test: Inhibition of recombinant 17beta-HSD3 (unknown origin) assessed as conversion of androstenedione to testosterone after 90 mins by scintillation counting analysis
T3 sequence (P37058 whole entry): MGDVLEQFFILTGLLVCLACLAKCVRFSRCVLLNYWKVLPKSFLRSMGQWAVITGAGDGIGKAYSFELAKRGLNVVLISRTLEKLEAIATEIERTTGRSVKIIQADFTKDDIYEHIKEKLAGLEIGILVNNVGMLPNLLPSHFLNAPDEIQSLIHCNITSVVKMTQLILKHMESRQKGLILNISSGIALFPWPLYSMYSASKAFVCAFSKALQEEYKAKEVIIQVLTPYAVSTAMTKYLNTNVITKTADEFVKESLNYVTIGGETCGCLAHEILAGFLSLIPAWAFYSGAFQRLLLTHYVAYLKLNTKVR

[7] = Clearance in rat; assay type: ADME, organism-based; conditions: in vivo
[8] = target: Voltage-gated inwardly rectifying potassium channel KCNH2 (Homo sapiens, UniProt Q12809); test: Inhibition of human ERG
Sequence of Voltage-gated inwardly rectifying potassium channel KCNH2 (Q12809 whole entry): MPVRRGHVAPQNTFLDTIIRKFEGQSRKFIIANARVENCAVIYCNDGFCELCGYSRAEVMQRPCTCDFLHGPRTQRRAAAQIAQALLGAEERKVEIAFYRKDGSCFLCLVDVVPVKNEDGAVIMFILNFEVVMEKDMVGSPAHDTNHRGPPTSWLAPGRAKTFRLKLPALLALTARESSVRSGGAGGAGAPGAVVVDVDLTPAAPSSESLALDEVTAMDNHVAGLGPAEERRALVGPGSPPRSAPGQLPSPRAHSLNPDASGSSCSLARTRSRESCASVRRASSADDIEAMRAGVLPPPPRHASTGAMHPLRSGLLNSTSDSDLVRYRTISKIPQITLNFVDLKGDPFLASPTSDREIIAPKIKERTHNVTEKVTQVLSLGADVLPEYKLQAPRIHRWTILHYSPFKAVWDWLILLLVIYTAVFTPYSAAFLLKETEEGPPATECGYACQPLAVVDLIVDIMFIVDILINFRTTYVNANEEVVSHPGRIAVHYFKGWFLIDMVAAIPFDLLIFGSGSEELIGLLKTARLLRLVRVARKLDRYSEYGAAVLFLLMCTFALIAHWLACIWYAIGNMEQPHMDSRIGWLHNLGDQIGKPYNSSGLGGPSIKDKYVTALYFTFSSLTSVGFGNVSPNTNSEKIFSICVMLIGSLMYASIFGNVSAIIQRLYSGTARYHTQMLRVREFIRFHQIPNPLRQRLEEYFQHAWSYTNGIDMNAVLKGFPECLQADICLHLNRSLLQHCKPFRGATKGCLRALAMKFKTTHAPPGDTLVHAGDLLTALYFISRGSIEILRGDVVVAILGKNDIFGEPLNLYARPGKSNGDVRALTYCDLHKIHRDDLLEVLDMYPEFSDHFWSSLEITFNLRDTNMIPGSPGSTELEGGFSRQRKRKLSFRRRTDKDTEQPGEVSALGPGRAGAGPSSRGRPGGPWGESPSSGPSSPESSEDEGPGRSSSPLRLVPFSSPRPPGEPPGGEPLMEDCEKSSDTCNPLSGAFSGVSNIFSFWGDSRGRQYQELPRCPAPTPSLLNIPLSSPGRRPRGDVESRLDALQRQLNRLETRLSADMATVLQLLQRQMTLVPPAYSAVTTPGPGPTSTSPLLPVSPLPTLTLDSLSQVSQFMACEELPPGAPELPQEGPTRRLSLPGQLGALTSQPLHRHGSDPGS

[9] = Volume of distribution at steady state in rat at 1 to 3 mg/kg; assay type: ADME, organism-based; design: dose 1-3 mg/kg; conditions: in vivo, read-out: Vdss
[10] = Volume of distribution at steady state in mouse at 1 to 3 mg/kg; assay type: ADME, organism-based; design: dose 1-3 mg/kg; conditions: in vivo, read-out: Vdss
Salmonella typhimurium = test: Genotoxicity in Salmonella typhimurium by Ames test; assay type: toxicity, organism-based; conditions: salmonella enterica subsp. enterica serovar typhimurium
[11] = Drug metabolism in dog hepatocytes assessed as compound remaining by LC-MS/MS analysis; assay type: ADME, cell-based, Canis lupus familiaris, Hepatocyte
[12] = Drug metabolism in rat hepatocytes assessed as compound remaining by LC-MS/MS analysis; assay type: ADME, cell-based, Hepatocyte
[13] = target: T2, 11-beta-hydroxysteroid dehydrogenase 1
Description: Inhibition of N-terminal 6-His-tagged human full length 11beta-HSD1 assessed as conversion of cortisone to cortisol after 25 mins by HTRF assay

[14] = Plasma clearance in rat at 1 to 3 mg/kg; assay type: ADME, organism-based; design: dose 1-3 mg/kg
Mus musculus = test: Ex vivo inhibition of 11beta-HSD1-mediated conversion of [3H]-cortisone to [3H]-cortisol in C57Bl6J mouse adipose tissue at 30 mg/kg, po after 1 hr by scintillation counting analysis relative to control; assay type: functional
[15] = target: T4, 11-beta-hydroxysteroid dehydrogenase type 2 (Homo sapiens, UniProt P80365); test: Inhibition of recombinant 11beta-HSD2 (unknown origin) assessed as conversion of cortisol to cortisone after 40 mins by fluorescence assay
T4 sequence (P80365 whole entry): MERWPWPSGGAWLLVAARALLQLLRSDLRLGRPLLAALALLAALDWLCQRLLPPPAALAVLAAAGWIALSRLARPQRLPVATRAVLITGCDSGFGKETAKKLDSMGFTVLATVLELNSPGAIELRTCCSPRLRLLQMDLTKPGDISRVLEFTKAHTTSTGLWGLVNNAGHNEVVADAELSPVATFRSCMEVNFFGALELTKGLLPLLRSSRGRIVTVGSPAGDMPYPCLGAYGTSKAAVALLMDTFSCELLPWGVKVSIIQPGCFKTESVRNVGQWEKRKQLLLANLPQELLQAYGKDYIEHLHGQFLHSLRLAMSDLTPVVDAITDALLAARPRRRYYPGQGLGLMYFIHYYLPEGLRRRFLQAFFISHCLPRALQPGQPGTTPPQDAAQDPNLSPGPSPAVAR

[16] = target: 11-beta-hydroxysteroid dehydrogenase 1 (Mus musculus, UniProt P50172); test: Inhibition of N-terminal 6-His-tagged mouse full length 11beta-HSD1 assessed as conversion of cortisone to cortisol after 25 mins by HTRF assay
Sequence of 11-beta-hydroxysteroid dehydrogenase 1 (Mus musculus, UniProt P50172) (P50172 whole entry): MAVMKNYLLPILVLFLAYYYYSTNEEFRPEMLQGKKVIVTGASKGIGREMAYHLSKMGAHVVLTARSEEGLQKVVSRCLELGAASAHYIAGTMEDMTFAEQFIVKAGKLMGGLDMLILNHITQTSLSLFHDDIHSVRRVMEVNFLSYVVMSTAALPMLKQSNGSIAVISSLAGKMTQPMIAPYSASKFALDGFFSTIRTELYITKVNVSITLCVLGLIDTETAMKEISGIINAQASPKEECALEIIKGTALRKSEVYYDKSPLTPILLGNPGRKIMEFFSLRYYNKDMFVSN

[17] = Half life in dog at 1 to 3 mg/kg, po; assay type: ADME, organism-based, Canis lupus familiaris; design: dose 1-3 mg/kg, route oral; conditions: in vivo
[18] = Inhibition of N-terminal 6-His-tagged cynomolgus monkey full length 11beta-HSD1 assessed as conversion of cortisone to cortisol after 25 mins by HTRF assay; design: species or system Macaca fascicularis
Phosphodiesterase 4 = Phosphodiesterase 4 (Homo sapiens, UniProt P27815+Q08499+Q07343+Q08493); test: Inhibition of PDE4 (unknown origin); assay type: protein assay
[19] = target: T5, 17-beta-hydroxysteroid dehydrogenase type 1 (Homo sapiens) (UniProt P14061); test: Inhibition of recombinant 17beta-HSD1 (unknown origin) assessed as conversion of estrone to estradiol at 10 uM after 20 mins by scintillation counting analysis relative to control
T5 sequence (whole entry): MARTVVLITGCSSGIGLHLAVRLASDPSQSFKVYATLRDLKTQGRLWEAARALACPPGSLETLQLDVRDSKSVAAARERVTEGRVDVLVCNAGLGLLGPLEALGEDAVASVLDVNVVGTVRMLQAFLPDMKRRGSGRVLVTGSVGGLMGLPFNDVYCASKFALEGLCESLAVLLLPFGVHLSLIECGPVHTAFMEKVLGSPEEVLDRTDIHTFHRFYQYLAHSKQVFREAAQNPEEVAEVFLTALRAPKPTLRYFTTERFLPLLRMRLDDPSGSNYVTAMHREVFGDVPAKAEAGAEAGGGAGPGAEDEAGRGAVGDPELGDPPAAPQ

CYP3A4 = CYP3A4 (Homo sapiens, UniProt P08684); test: Inhibition of CYP3A4 (unknown origin) at 10 uM relative to control; assay type: ADME
Sequence of CYP3A4 (P08684 whole entry): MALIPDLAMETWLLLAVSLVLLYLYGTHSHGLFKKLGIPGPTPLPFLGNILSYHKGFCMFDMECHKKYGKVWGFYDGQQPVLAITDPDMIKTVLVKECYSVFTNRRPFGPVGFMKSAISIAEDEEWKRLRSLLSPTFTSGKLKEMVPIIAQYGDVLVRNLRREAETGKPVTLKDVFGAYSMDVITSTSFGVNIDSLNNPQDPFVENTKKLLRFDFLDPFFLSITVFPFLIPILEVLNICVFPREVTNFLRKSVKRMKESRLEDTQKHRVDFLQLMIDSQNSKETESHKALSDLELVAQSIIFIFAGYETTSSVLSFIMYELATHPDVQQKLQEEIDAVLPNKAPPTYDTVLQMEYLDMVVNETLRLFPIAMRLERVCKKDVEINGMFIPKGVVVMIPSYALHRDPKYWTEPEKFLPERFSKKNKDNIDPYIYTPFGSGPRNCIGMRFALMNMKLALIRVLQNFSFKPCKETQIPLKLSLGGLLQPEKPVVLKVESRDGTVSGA

half-life [1]: 15 h
inhibition at 10 µM (CYP1A2): < 25%
IC50 [2]: 0.082 µM
Vd [3]: 0.7 L/kg
dose excreted [4]: 7.6%
IC50 [5]: 0.004 µM
IC50 [6]: 25 µM
clearance [7]: 6 mL/min/kg
Vd [9]: 0.9 L/kg
Vd [10]: 1.2 L/kg
Stability [11]: 92%
Stability [12]: 82%
IC50 [13]: 0.006 µM
clearance [14]: 6 mL/min/kg
IC50 [15]: > 30 µM
IC50 [16]: 0.31 µM
half-life [17]: 27 h
IC50 [18]: 0.02 µM
IC50 (Phosphodiesterase 4): 30 µM
inhibition [19]: 20%
inhibition at 10 µM (CYP3A4): < 25%
Compound: CSc1nc(N2C[C@@H]3[C@H](C2)[C@H]3C(=O)O)ccc1C(=O)NC12CC3CC(CC(C3)C1)C2
IC50 [8]: > 30 µM
Activity (Salmonella typhimurium): Non-toxic
inhibition in vivo at 30 mg/kg (Mus musculus): 50%
